Measurements reported in ChEMBL document CHEMBL1697781, “Assessment of the health effects of chemicals in humans: II. Construction of an adverse effects database for QSAR modeling” (Curr Drug Discov Technol, 2004).

Key:
Settings in all cases: human; call rule not given here
[1] = test system: Hepatotoxicity; test: FDA HLAED, liver enzyme composite activity
[2] = test system: Hepatotoxicity; test: FDA HLAED, alkaline phosphatase increase
[3] = test system: Hepatotoxicity; test: FDA HLAED, serum glutamic oxaloacetic transaminase (SGOT) increase
[4] = test system: Hepatotoxicity; test: FDA HLAED, serum glutamic pyruvic transaminase (SGPT) increase
[5] = test system: Hepatotoxicity; test: FDA HLAED, lactate dehydrogenase (LDH) increase
[6] = test system: Hepatotoxicity; test: FDA HLAED, gamma-glutamyl transferase (GGT) increase
For GGT Increase - Index Value in this document: reference of the scale not given here.
For LDH Increase - Index Value in this document: reference of the scale not given here.

Row | SMILES | Composite Activity - Active [1] | Composite Activity - Marginal [1] | Composite Activity - Score [1] | Alkaline Phosphatase Increase - Activity Score [2] | Alkaline Phosphatase Increase - Index Value [2] | Alkaline Phosphatase Increase - Number of Reports [2] | SGOT Increase - Activity Score [3] | SGOT Increase - Index Value [3] | SGOT Increase - Number of Reports [3] | SGPT Increase - Activity Score [4] | SGPT Increase - Index Value [4] | SGPT Increase - Number of Reports [4] | LDH Increase - Activity Score [5] | LDH Increase - Index Value [5] | LDH Increase - Number of Reports [5] | GGT Increase - Activity Score [6] | GGT Increase - Index Value [6] | GGT Increase - Number of Reports [6]
1 | C=C1/C(=C\C=C2/CCC[C@]3(C)[C@@H]([C@H](C)/C=C/[C@@H](O)C4CC4)CC[C@@H]23)C[C@@H](O)C[C@@H]1O [CALCIPOTRIENE] | 0 | 0 | Inactive | Inactive | 0 | < 4 | Inactive | 0.3 | < 4 | Inactive | 0 | < 4 | Inactive | 0 | < 4 | Inactive | 0 | < 4
2 | C=C1/C(=C\C=C2/CCC[C@]3(C)[C@@H]([C@H](C)CCCC(C)(C)O)CC[C@@H]23)C[C@@H](O)C[C@@H]1O [CALCITRIOL] | 0 | 0 | Inactive | Inactive | 0 | < 4 | Inactive | 0 | < 4 | Inactive | 0 | < 4 | Inactive | 0 | < 4 | Inactive | 0 | < 4
3 | C[C@H](CS)C(=O)N1CCC[C@H]1C(=O)O [CAPTOPRIL] | 0 | 0 | Inactive | Inactive | 1.1 | >= 4 | Inactive | 1.5 | >= 4 | Inactive | 0.7 | >= 4 | Inactive | 0.4 | < 4 | Inactive | 0 | < 4
4 | CC(C)(C)NCC(O)COc1cccc2c1CCC(=O)N2 (stereo unspecified) [CARTEOLOL] | 0 | 0 | Inactive | Inactive | 0 | < 4 | Inactive | 0.5 | < 4 | Inactive | 0.5 | < 4 | Inactive | 0.5 | < 4 | Inactive | 0 | < 4
5 | COc1ccccc1OCCNCC(O)COc1cccc2[nH]c3ccccc3c12 (stereo unspecified) [CARVEDILOL] | 0 | 0 | Inactive | Inactive | 0 | < 4 | Inactive | 0 | < 4 | Inactive | 0 | < 4 | Inactive | 0 | < 4 | Inactive | 0 | < 4
6 | N[C@@H](C(=O)N[C@@H]1C(=O)N2C(C(=O)O)=C(Cl)CS[C@H]12)c1ccccc1 [CEFACLOR ANHYDROUS] | 1 | 1 | Inactive | Marginally Active | 3.4 | >= 4 | Active | 6 | >= 4 | Inactive | 2.9 | >= 4 | Inactive | 0.4 | >= 4 | Inactive | 0 | < 4
7 | CC1=C(C(=O)O)N2C(=O)[C@@H](NC(=O)[C@H](N)c3ccc(O)cc3)[C@H]2SC1 [CEFADROXIL] | 0 | 0 | Inactive | Inactive | 0 | < 4 | Inactive | 0 | < 4 | Inactive | 0 | < 4 | Inactive | 0 | < 4 | Inactive | 0 | < 4
8 | Cn1nnnc1SCC1=C(C(=O)[O-])N2C(=O)[C@@H](NC(=O)[C@H](OC=O)c3ccccc3)[C@H]2SC1.[Na+] [CEFAMANDOLE NAFATE] | 0 | 0 | Inactive | Inactive | 0 | < 4 | Inactive | 0 | < 4 | Inactive | 0 | < 4 | Inactive | 0 | < 4 | Inactive | 0 | < 4
9 | Cn1nnnc1SCC1=C(C(=O)O)N2C(=O)[C@@H](NC(=O)[C@H](O)c3ccccc3)[C@H]2SC1 [CEFAMANDOLE] | 0 | 0 | Inactive | Inactive | 0 | < 4 | Inactive | 0 | < 4 | Inactive | 0 | < 4 | Inactive | 0 | < 4 | Inactive | 0 | < 4
10 | C=CC1=C(C(=O)O)N2C(=O)[C@@H](NC(=O)/C(=N\OCC(=O)O)c3csc(N)n3)[C@H]2SC1 [CEFIXIME] | 0 | 0 | Inactive | Inactive | 13.7 | < 4 | Inactive | 0.4 | >= 4 | Inactive | 0.4 | >= 4 | Inactive | 0.1 | < 4 | Inactive | 0 | < 4
11 | CO[C@@]1(NC(=O)CSCC#N)C(=O)N2C(C(=O)O)=C(CSc3nnnn3C)CS[C@@H]21 [CEFMETAZOLE] | 0 | 0 | Inactive | Inactive | 0.1 | < 4 | Inactive | 0 | < 4 | Inactive | 0 | < 4 | Inactive | 25.5 | < 4 | Inactive | 0 | < 4
12 | O=C(O)C1=C(CSc2nnnn2CS(=O)(=O)O)CS[C@@H]2[C@H](NC(=O)[C@H](O)c3ccccc3)C(=O)N12 [CEFONICID] | 0 | 0 | Inactive | Inactive | 12.7 | < 4 | Inactive | 0 | < 4 | Inactive | 0 | < 4 | Inactive | 0 | < 4 | Inactive | 0 | < 4
